Source: PubChem BioAssay (NCI)
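96-well plates; 48 h exposure; 5 concentrations. Endpoints by linear interpolation between flanking doses. Not reached: highest tested concentration assigned. TGI denotes the concentration required for complete inhibition of growth.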

Experiments:
Assay in all cases: DTP human tumour cell line panel, 48 h
[1] = test system: HOP-92 NSCLC
[2] = test system: MDA-MB-435
[3] = test system: PC-3 prostate
[4] = test system: SF-268 CNS
[5] = test system: SNB-19 CNS
[6] = test system: M14 melanoma
[7] = test system: KM12 colon
[8] = test system: A549 NSCLC
[9] = test system: MOLT-4 leukemia
[10] = test system: OVCAR-4 ovarian
[11] = test system: NCI-H522 lung
[12] = test system: A498 renal
[13] = test system: SW-620 colon
[14] = test system: DU-145 prostate
[15] = test system: HL-60(TB) leukemia
[16] = test system: SK-MEL-2 melanoma
[17] = test system: SK-OV-3 ovarian
[18] = test system: IGROV1 ovarian
[19] = test system: T-47D breast
[20] = test system: CCRF-CEM leukemia
[21] = test system: OVCAR-3 ovarian
[22] = test system: MALME-3M melanoma
[23] = test system: MDA-N
[24] = test system: EKVX NSCLC
[25] = test system: NCI/ADR-RES ovarian
[26] = test system: HCT-15 colon
[27] = test system: K-562 leukemia
[28] = test system: SF-295 CNS
[29] = test system: SF-539 CNS
[30] = test system: SR leukemia
[31] = test system: MDA-MB-231 breast
[32] = test system: SK-MEL-5 melanoma
[33] = test system: 786-0 renal
[34] = test system: UACC-257 melanoma
[35] = test system: NCI-H226 lung
[36] = test system: NCI-H23 lung
[37] = test system: HOP-62 NSCLC
[38] = test system: BT-549 breast
[39] = test system: U251 CNS
[40] = test system: HCT-116 colon
[41] = test system: COLO 205 colon
[42] = test system: UO-31 renal
[43] = test system: OVCAR-8 ovarian
[44] = test system: MCF7 breast
[45] = test system: RPMI-8226 leukemia
[46] = test system: CAKI-1 renal
[47] = test system: OVCAR-5 ovarian
[48] = test system: NCI-H460 lung
[49] = test system: UACC-62 melanoma
[50] = test system: RXF 393 renal
[51] = test system: ACHN renal
[52] = test system: TK-10 renal
[53] = test system: HCC-2998 colon
[54] = test system: SN12C renal
[55] = test system: HT29 colon
[56] = test system: SK-MEL-28 melanoma
[57] = test system: HS 578T breast
[58] = test system: SNB-75 CNS
[59] = test system: LOX IMVI melanoma

SMILES: CC1(CO)OC(n2cnc3cncnc32)CC1O (configuration not stated)
- TGI [1]: > 100 µM
- TGI [2]: > 100 µM
- TGI [3]: > 100 µM
- TGI [4]: > 100 µM
- TGI [5]: > 100 µM
- TGI [6]: > 100 µM
- TGI [7]: > 100 µM
- TGI [8]: > 100 µM
- TGI [9]: > 100 µM
- TGI [10]: > 100 µM
- TGI [11]: > 100 µM
- TGI [12]: > 100 µM
- TGI [13]: > 100 µM
- TGI [14]: > 100 µM
- TGI [15]: > 100 µM
- TGI [16]: > 100 µM
- TGI [17]: > 100 µM
- TGI [18]: > 100 µM
- TGI [19]: > 100 µM
- TGI [20]: > 100 µM
- TGI [21]: > 100 µM
- TGI [22]: > 100 µM
- TGI [23]: > 100 µM
- TGI [24]: > 100 µM
- TGI [25]: > 100 µM
- TGI [26]: > 100 µM
- TGI [27]: > 100 µM
- TGI [28]: > 100 µM
- TGI [29]: > 100 µM
- TGI [30]: > 100 µM
- TGI [31]: > 100 µM
- TGI [32]: > 100 µM
- TGI [33]: > 100 µM
- TGI [34]: > 100 µM
- TGI [35]: > 100 µM
- TGI [36]: > 100 µM
- TGI [37]: > 100 µM
- TGI [38]: > 100 µM
- TGI [39]: > 100 µM
- TGI [40]: > 100 µM
- TGI [41]: > 100 µM
- TGI [42]: > 100 µM
- TGI [43]: > 100 µM
- TGI [44]: > 100 µM
- TGI [45]: > 100 µM
- TGI [46]: > 100 µM
- TGI [47]: > 100 µM
- TGI [48]: > 100 µM
- TGI [49]: > 100 µM
- TGI [50]: > 100 µM
- TGI [51]: > 100 µM
- TGI [52]: > 100 µM
- TGI [53]: > 100 µM
- TGI [54]: > 100 µM
- TGI [55]: > 100 µM
- TGI [56]: > 100 µM

SMILES: c1ccc([P+](CCN2Cc3ccccc3C2)(c2ccccc2)c2ccccc2)cc1
- TGI [1]: 6.41 µM
- TGI [2]: 13.7 µM
- TGI [3]: > 100 µM
- TGI [4]: 30.1 µM
- TGI [5]: > 100 µM
- TGI [6]: 23 µM
- TGI [7]: 16 µM
- TGI [8]: > 100 µM
- TGI [9]: > 100 µM
- TGI [11]: 12.2 µM
- TGI [12]: 55.6 µM
- TGI [13]: 25.8 µM
- TGI [14]: 45.6 µM
- TGI [15]: 10.5 µM
- TGI [16]: 5.41 µM
- TGI [17]: 66.2 µM
- TGI [18]: 5.87 µM
- TGI [19]: 24.3 µM
- TGI [20]: 40.5 µM
- TGI [21]: 18.1 µM
- TGI [22]: 25.1 µM
- TGI [23]: 14.3 µM
- TGI [24]: > 100 µM
- TGI [25]: > 100 µM
- TGI [26]: 36.2 µM
- TGI [27]: > 100 µM
- TGI [28]: 83.9 µM
- TGI [29]: 24.4 µM
- TGI [30]: 52 µM
- TGI [31]: 16.2 µM
- TGI [32]: 11.3 µM
- TGI [33]: 44.4 µM
- TGI [34]: 12.4 µM
- TGI [57]: > 100 µM
- TGI [35]: 31.7 µM
- TGI [58]: 8.71 µM
- TGI [36]: > 100 µM
- TGI [37]: 45.3 µM
- TGI [39]: 19.5 µM
- TGI [40]: 20.9 µM
- TGI [41]: 3.45 µM
- TGI [42]: 34.6 µM
- TGI [43]: 7.95 µM
- TGI [44]: 14.4 µM
- TGI [46]: > 100 µM
- TGI [47]: 57 µM
- TGI [48]: > 100 µM
- TGI [49]: 13.1 µM
- TGI [59]: 33 µM
- TGI [50]: 22.3 µM
- TGI [51]: 23.1 µM
- TGI [52]: 41.5 µM
- TGI [53]: 15.9 µM
- TGI [54]: 32.8 µM
- TGI [55]: 22.2 µM
- TGI [56]: 9.6 µM
